The experiment has as its target T1, ERα (Homo sapiens, UniProt P03372).
T1 construct: host or cells: MCF7
T1 sequence (P03372 1-595): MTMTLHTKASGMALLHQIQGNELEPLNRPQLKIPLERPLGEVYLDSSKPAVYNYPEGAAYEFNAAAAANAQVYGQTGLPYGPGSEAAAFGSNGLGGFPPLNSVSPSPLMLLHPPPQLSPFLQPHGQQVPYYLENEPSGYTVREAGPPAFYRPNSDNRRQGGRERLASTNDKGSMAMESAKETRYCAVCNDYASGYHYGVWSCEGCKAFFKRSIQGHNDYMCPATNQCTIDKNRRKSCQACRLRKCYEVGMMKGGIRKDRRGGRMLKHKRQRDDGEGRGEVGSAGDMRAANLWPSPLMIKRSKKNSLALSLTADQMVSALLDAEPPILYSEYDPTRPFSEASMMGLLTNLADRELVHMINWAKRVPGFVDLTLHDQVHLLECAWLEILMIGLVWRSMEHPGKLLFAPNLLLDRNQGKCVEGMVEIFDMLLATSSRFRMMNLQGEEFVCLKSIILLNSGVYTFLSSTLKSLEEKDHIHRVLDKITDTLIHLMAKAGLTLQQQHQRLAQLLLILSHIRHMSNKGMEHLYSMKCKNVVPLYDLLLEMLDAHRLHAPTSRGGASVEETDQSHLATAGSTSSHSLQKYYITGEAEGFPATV
The experiment is described as follows: Estrogen receptor degradation activity: breast cancer cell ERα in cell western assay in MCF7 cells. In kind it is cell-based. The settings on record: 4 hours, relative to fulvestrant 0.1 μM positive control. On the procedure: Test: Estrogen receptor degradation activity
Said test involves measuring the in vitro degradation activity of the compounds of the table 1.
The measurements of the degradation activities were made using a breast cancer cell ERα in cell western assay as described hereunder.
MCF7 cells (ATCC) were seeded in 384 wells microplate (collagen coated) at a concentration of 10000 cells/30 μL per well in red phenol free MEM alpha medium (invitrogen) containing 5% charcoal dextran striped FBS. The following day, 9 points serial 1:5 dilution of each compound was added to the cells in 2.5 μL at final concentrations ranging from 0.3-0.0000018 μM (in table 2), or 0.1 μM for fulvestrant (using as positive control). At 4 hours post compound addition the cells were fixed by adding 25 μL of formalin (final concentration 5% formalin containing 0.1% triton) for 10 minutes at RT and then washed twice with PBS. Then, 50 μL of LI-COR blocking buffer containing 0.1% Triton was added to plate for 30 minutes at RT. LI-COR blocking buffer was removed and cells were incubated overnight at cold room with 50 μL anti-ER rabbit monoclonal antibody (Thermo scientific MA1-39540) diluted at 1:1000 in LI-COR blocking buffer containing 0.1% tween-20. Wells which were treated with blocking buffer but no antibody were used as background control. Wells were washed twice with PBS (0.1% tween-20) and incubated at 37° C. for 60 minutes in LI-COR (0.1% tween-20) containing goat anti-rabbit antibody Alexa 488 (1:1000) and Syto-64 a DNA dye (2 μM final concentration). Cells were then washed 3 times in PBS and scanned in ACUMEN explorer (TTP-Labtech). Integrated intensities in the green fluorescence and red fluorescence were measured to determine the levels of ERα and DNA respectively.
The degradation activity with respect to estrogen receptors in this test is given by the concentration which degrades 50% of the estrogen receptor (or IC50) in nM.
The % of ERα levels decrease were determined as follows: % inhibition=100*(1−(sample−fulvestrant:DMSO−fulvestrant)).
As for `Cc1c(Cl)cccc1C1=C(c2ccc(CC3CN(CCCF)C3)cc2)c2ccc3[nH]ccc3c2CCC1` [Compound 8, 7-(3-chloro-2-methylphenyl)-6-(4-((1-(3-fluoropropyl)azetidin-3-yl)methyl)phenyl)-3,8,9,10-tetrahydrocyclohepta[e]indole], the “% Degradation At 0.3 μM” value was found to be 83%. Take `Cc1c(Cl)cccc1C1=C(c2ccc(NC3CN(CCCF)C3)cc2)c2ccc3[nH]ccc3c2CCC1` [Compound 27, N-(4-(7-(3-chloro-2-methylphenyl)-3,8,9,10-tetrahydrocyclohepta[e]indol-6-yl)phenyl)-1-(3-fluoropropyl)azetidin-3-amine]: the “% Degradation At 0.3 μM” value is listed as 91%. `OCCCC1=C(c2ccc(CC3CN(CCCF)C3)cc2)c2ccc3[nH]ccc3c2CCC1` [Compound 25, 3-(6-(4-((1-(3-fluoropropyl)azetidin-3-yl)methyl)phenyl)-3,8,9,10-tetrahydrocyclohepta[e]indol-7-yl)propan-1-ol]: the “% Degradation At 0.3 μM” value is 75%. With `Oc1c(F)ccc(C2=C(c3ccc(CC4CN(CCCF)C4)cc3)c3ccc4[nH]ccc4c3CCC2)c1F` [Compound 6, 2,6-difluoro-3-(6-(4-((1-(3-fluoropropyl)azetidin-3-yl)methyl)phenyl)-3,8,9,10-tetrahydrocyclohepta[e]indol-7-yl)phenol] the figure was 90%; with `Cc1c(Cl)cccc1C1=C(c2ccc(N[C@H]3CCN(CCCF)C3)cc2)c2ccc3[nH]ccc3c2CCC1` [Compound 28, (S)-N-(4-(7-(3-chloro-2-methylphenyl)-3,8,9,10-tetrahydrocyclohepta[e]indol-6-yl)phenyl)-1-(3-fluoropropyl)pyrrolidin-3-amine], 91%. `OC/C=C/C1=C(c2ccc(CC3CN(CCCF)C3)cc2)c2ccc3[nH]ccc3c2CCC1` [Compound 17, (E)-3-(6-(4-((1-(3-fluoropropyl)azetidin-3-yl)methyl)phenyl)-3,8,9,10-tetrahydrocyclohepta[e]indol-7-yl)prop-2-en-1-ol]: the “% Degradation At 0.3 μM” value came out at 69%. With `FCCCN1CC[C@H](Oc2ccc(C3=C(c4ccc(Cl)cc4Cl)CCCc4c3ccc3[nH]ccc43)cc2)C1` [Compound 4, (S)-7-(2,4-dichlorophenyl)-6-(4-((1-(3-fluoropropyl)pyrrolidin-3-yl)oxy)phenyl)-3,8,9,10-tetrahydrocyclohepta[e]indole] the figure was 85%; with `O=C(O)c1cccc(C2=C(c3ccc(CC4CN(CCCF)C4)cc3)c3ccc4[nH]ccc4c3CCC2)c1` [Compound 22, 3-(6-(4-((1-(3-fluoropropyl)azetidin-3-yl)methyl)phenyl)-3,8,9,10-tetrahydrocyclohepta[e]indol-7-yl)benzoic acid], 68%; with `FCCCN1CC(Cc2ccc(C3=C(c4cccc(C(F)(F)F)c4)CCCc4c3ccc3[nH]ccc43)cc2)C1` [Compound 10, 6-(4-((1-(3-fluoropropyl)azetidin-3-yl)methyl)phenyl)-7-(3-(trifluoromethyl)phenyl)-3,8,9,10-tetrahydrocyclohepta[e]indole], 73%. As for `CC(C)(O)/C=C/C1=C(c2ccc(CC3CN(CCCF)C3)cc2)c2ccc3[nH]ccc3c2CCC1` [Compound 18, (E)-4-(6-(4-((1-(3-fluoropropyl)azetidin-3-yl)methyl)phenyl)-3,8,9,10-tetrahydrocyclohepta[e]indol-7-yl)-2-methylbut-3-en-2-ol], the figure is 77%. For the molecule `O=C(O)/C=C/C1=C(c2ccc(CC3CN(CCCF)C3)cc2)c2ccc3[nH]ccc3c2CCC1` [Compound 24, (E)-3-(6-(4-((1-(3-fluoropropyl)azetidin-3-yl)methyl)phenyl)-3,8,9,10-tetrahydrocyclohepta[e]indol-7-yl)acrylic acid], the “% Degradation At 0.3 μM” value worked out at 92%. With `N#Cc1cccc(C2=C(c3ccc(CC4CN(CCCF)C4)cc3)c3ccc4[nH]ccc4c3CCC2)c1` [Compound 11, 3-(6-(4-((1-(3-fluoropropyl)azetidin-3-yl)methyl)phenyl)-3,8,9,10-tetrahydrocyclohepta[e]indol-7-yl)benzonitrile] the figure was 75%. With `Cc1cc(F)ccc1C1=C(c2ccc(CC3CN(CCCF)C3)cc2)c2ccc3[nH]ccc3c2CCC1` [Compound 1, 7-(4-fluoro-2-methylphenyl)-6-(4-((1-(3-fluoropropyl)azetidin-3-yl)methyl)phenyl)-3,8,9,10-tetrahydrocyclohepta[e]indole] the figure was 80%; with `O=C(O)C(F)(F)F.O=C(O)c1ccc(C2=C(c3ccc(CC4CN(CCCF)C4)cc3)c3ccc4[nH]ccc4c3CCC2)cc1` [Compound 23, 4-(6-(4-((1-(3-fluoropropyl)azetidin-3-yl)methyl)phenyl)-3,8,9,10-tetrahydrocyclohepta[e]indol-7-yl)benzoic acid, 2,2,2-trifluoroacetic acid], 80%; with `OCc1ccc(C2=C(c3ccc(CC4CN(CCCF)C4)cc3)c3ccc4[nH]ccc4c3CCC2)cc1` [Compound 20, (4-(6-(4-((1-(3-fluoropropyl)azetidin-3-yl)methyl)phenyl)-3,8,9,10-tetrahydrocyclohepta[e]indol-7-yl)phenyl)methanol], 76%. On to `COc1cccc(C2=C(c3ccc(CC4CN(CCCF)C4)cc3)c3ccc4[nH]ccc4c3CCC2)c1OC` [Compound 9, 7-(2,3-dimethoxyphenyl)-6-(4-((1-(3-fluoropropyl)azetidin-3-yl)methyl)phenyl)-3,8,9,10-tetrahydrocyclohepta[e]indole], for which the “% Degradation At 0.3 μM” value was 80%. `COc1cc(C2=C(c3ccc(CC4CN(CCCF)C4)cc3)c3ccc4[nH]ccc4c3CCC2)ccn1` [Compound 14, 6-(4-((1-(3-fluoropropyl)azetidin-3-yl)methyl)phenyl)-7-(2-methoxypyridin-4-yl)-3,8,9,10-tetrahydrocyclohepta[e]indole]: the “% Degradation At 0.3 μM” value is recorded as 91%.

For the molecule `Cc1c(Cl)cccc1C1=C(c2ccc(/C=C3/CCN(CCCF)C3)cc2)c2ccc3[nH]ccc3c2CCC1` [Compound 29, (Z)-7-(3-chloro-2-methylphenyl)-6-(4-((1-(3-fluoropropyl)pyrrolidin-3-ylidene)methyl)phenyl)-3,8,9,10-tetrahydrocyclohepta[e]indole], the “% Degradation At 0.3 μM” value turned out to be 91%. As for `OCc1cccc(C2=C(c3ccc(CC4CN(CCCF)C4)cc3)c3ccc4[nH]ccc4c3CCC2)c1` [Compound 19, (3-(6-(4-((1-(3-fluoropropyl)azetidin-3-yl)methyl)phenyl)-3,8,9,10-tetrahydrocyclohepta[e]indol-7-yl)phenyl)methanol], the figure is 71%.

Consider `Cc1c(Cl)cccc1C1=C(c2ccc(C=C3CN(CCCF)C3)cc2)c2ccc3[nH]ccc3c2CCC1` [Compound 3, 7-(3-chloro-2-methylphenyl)-6-(4-((1-(3-fluoropropyl)azetidin-3-ylidene)methyl)phenyl)-3,8,9,10-tetrahydrocyclohepta[e]indole], for which the “% Degradation At 0.3 μM” value is 91%.

With `FCCCN1CC[C@H](Oc2ccc(C3=C(C4=CCC(F)(F)CC4)CCCc4c3ccc3[nH]ccc43)cc2)C1` [Compound 5, (S)-7-(4,4-difluorocyclohex-1-en-1-yl)-6-(4-((1-(3-fluoropropyl)pyrrolidin-3-yl)oxy)phenyl)-3,8,9,10-tetrahydrocyclohepta[e]indole], the “% Degradation At 0.3 μM” value amounted to 95%. With `COc1nccc(C2=C(c3ccc(CC4CN(CCCF)C4)cc3)c3ccc4[nH]ccc4c3CCC2)c1F` [Compound 2, 7-(3-fluoro-2-methoxypyridin-4-yl)-6-(4-((1-(3-fluoropropyl)azetidin-3-yl)methyl)phenyl)-3,8,9,10-tetrahydrocyclohepta[e]indole] the figure was 92%; with `OCCc1cccc(C2=C(c3ccc(CC4CN(CCCF)C4)cc3)c3ccc4[nH]ccc4c3CCC2)c1` [Compound 21, 2-(3-(6-(4-((1-(3-fluoropropyl)azetidin-3-yl)methyl)phenyl)-3,8,9,10-tetrahydrocyclohepta[e]indol-7-yl)phenyl)ethan-1-ol], 65%.

Values taken from patent US20250368619A1, “SUBSTITUTED TETRAHYDROCYCLOHEPTA[E]INDOLE DERIVATIVES, PROCESSES FOR THEIR PREPARATION AND THERAPEUTIC USES THEREOF” (SANOFI, priority 2022, published 2025).
